According to patent US9326938B2 (National Yang Ming Unviversity, priority 2013, dated 2016):

Legend:
[1] = system: HCT116 tumor-bearing mice; test: In vivo antitumor activity; design: species or system Balb-c/nude mice; details: 10 mg/kg i.v. on days 0 and 7, compared to control mice
Experimental: (§1) The HCT116 cells were transplanted subcutaneously into the rear of 4-week female Balb-c/nude mice (1×10^6 cells/0.1 mL) At 4-6 weeks post-transplantation, HCT116 tumor-bearing mice (tumor volume: approximately 500 mm^3) were used in the antitumor activity study. Mice were treated i.v. via the tail vein on days 0 and 7. Animals were then injected with a drug PBS solution (free Dox, Dox-loaded polymer-incorporated nanoparticles, and Dox-loaded oligomer-contained nanoparticle complexes at a dose of 10 mg/kg). Tumor size was measured three weekly using a Vernier's caliper. To evaluate animal wellness and clinical status, the body weight of mice was recorded.

[2] = Body weight of mice in antitumor study; format: in vivo, Balb-c/nude mice; details: 10 mg/kg i.v. on days 0 and 7, during the administration period
Experimental: as §1

Compound: COc1cccc2c1C(=O)c1c(O)c3c(c(O)c1C2=O)C[C@@](O)(C(=O)CO)C[C@@H]3O[C@H]1C[C@H](N)[C@H](O)[C@H](C)O1 [free Dox, doxorubicin]
- Tumor growth [1]: inhibited tumor growth
- Body weight of mice [2]: obvious weight loss
